Assay results from patent US12636287B2, “Organic compounds” (INTRA-CELLULAR THERAPIES, INC., priority 2018, dated 2026).

Assays:
UWLV301 GBM cell line = assay: Sensitivity of GBM cell line to Compounds 1 and 2 (ID50); assay type: cell-based; settings: Homo sapiens
IN1951 GBM cell line = assay: as above; assay type: cell-based; settings: Homo sapiens
UWLV304 GBM cell line = assay: as above; assay type: cell-based; settings: Homo sapiens
IN1528 GBM cell line = assay: as above; assay type: cell-based; settings: Homo sapiens
U251MG GBM cell line = assay: as above; assay type: cell-based; settings: Homo sapiens, U-251
IN859 GBM cell line = assay: as above; assay type: cell-based; settings: Homo sapiens
IN2045 GBM cell line = assay: as above; assay type: cell-based; settings: Homo sapiens
GBM cells = assay: Proliferation and survival of GBM cells over 8 days; assay type: cell-based, human; settings: for change in GBM cell population by day 8 / rate of proliferation in comparison with untreated samples: 10 μM and 20 μM; for change in GBM cell population by day 8: UWLV301, UWLV304, IN1951, U251MG and IN2045; for rate of proliferation in comparison with untreated samples: recorded daily for 8 days, all cell lines; for slowing or eliminating the proliferation of the GBM cell lines: summary statement
Method: Further studies were carried out to test the effect of Compounds 1 and 2 on proliferation and survival of the GBM cells. […] Results on the change in cell population were observed and recorded daily for 8 days.

PDE1 (bovine brain) = target: T1, PDE1 (bovine brain); assay type: biochemical
T1 construct: Ki; other: PDE1 (bovine brain)

bovine retina PDE6 = target: T2, bovine retina PDE6 (Bos taurus, UniProt P11541+P23439); assay: Inhibitory constant against PDEs; assay type: biochemical
T2 construct: bovine retina PDE6; from tissue; host or cells: bovine retina
T2 sequence (P11541 2-856 limits assumed): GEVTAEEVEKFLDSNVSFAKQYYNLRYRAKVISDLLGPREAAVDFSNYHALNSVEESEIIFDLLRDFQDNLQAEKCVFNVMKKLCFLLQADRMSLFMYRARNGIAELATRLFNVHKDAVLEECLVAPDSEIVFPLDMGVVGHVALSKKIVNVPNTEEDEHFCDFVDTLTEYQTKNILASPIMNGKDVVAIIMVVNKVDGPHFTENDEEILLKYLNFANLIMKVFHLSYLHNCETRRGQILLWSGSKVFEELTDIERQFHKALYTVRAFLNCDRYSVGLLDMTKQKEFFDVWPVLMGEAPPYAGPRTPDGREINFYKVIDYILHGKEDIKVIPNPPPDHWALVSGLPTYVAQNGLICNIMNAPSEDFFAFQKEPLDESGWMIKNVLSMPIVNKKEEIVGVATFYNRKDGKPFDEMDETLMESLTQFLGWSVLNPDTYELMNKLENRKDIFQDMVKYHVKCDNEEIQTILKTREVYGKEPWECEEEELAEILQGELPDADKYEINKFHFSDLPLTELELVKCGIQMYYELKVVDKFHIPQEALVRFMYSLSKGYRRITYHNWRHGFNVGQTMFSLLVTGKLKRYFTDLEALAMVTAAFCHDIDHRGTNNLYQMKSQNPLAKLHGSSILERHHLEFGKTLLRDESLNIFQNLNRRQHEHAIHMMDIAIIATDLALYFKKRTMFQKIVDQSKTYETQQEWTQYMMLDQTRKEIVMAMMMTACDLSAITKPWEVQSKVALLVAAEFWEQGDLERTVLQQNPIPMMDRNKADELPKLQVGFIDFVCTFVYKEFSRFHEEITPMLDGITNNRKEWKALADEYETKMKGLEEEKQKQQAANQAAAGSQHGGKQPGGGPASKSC
T2 sequence (P23439 2-850 limits assumed): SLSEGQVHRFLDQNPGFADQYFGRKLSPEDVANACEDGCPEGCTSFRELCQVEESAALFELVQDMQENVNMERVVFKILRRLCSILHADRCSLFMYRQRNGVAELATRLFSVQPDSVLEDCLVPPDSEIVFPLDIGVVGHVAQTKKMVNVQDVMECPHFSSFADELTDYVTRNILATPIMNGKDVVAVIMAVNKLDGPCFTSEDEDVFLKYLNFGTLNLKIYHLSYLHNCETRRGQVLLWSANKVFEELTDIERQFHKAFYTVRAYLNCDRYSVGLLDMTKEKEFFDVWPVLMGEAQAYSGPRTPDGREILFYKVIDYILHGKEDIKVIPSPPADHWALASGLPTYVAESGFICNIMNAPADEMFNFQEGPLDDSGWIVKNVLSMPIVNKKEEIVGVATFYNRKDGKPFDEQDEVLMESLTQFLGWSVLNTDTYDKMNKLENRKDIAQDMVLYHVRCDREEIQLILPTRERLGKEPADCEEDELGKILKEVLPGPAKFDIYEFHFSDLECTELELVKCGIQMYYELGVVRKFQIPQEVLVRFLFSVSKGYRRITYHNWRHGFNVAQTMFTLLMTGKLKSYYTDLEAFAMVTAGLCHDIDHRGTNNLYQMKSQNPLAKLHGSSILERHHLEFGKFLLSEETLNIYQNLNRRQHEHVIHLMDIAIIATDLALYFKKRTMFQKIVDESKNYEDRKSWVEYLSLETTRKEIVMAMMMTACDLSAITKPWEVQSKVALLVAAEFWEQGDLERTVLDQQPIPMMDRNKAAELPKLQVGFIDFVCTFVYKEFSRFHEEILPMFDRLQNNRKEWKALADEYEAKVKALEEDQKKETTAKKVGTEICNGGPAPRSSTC

| SMILES | IC50 (UWLV301 GBM cell line) [µM] | IC50 (IN1951 GBM cell line) [µM] | IC50 (UWLV304 GBM cell line) [µM] | IC50 (IN1528 GBM cell line) [µM] | IC50 (U251MG GBM cell line) [µM] | IC50 (IN859 GBM cell line) [µM] | IC50 (IN2045 GBM cell line) [µM] | change in GBM cell population by day 8 (GBM cells) | rate of proliferation in comparison with untreated samples (GBM cells) | slowing or eliminating the proliferation of the GBM cell lines (GBM cells) | Ki (PDE1 (bovine brain)) [nM] | Ki (bovine retina PDE6) [µM] |
| --- | --- | --- | --- | --- | --- | --- | --- | --- | --- | --- | --- | --- |
| CC(=O)c1ccc(Cn2nc3c(c2Nc2ccc(F)cc2)C(=O)N(C)C2=NC(C)(C)CN23)cc1 [Compound 2] | 4.73 | 1.03 | 2.87 | 9.45 | 32 | 9.77 | 12 | overall decrease | proliferated at a slower rate | highly effective |  |  |
| CN1C(=O)c2c(nn(Cc3ccc(-c4cccc(F)n4)cc3)c2Nc2ccccc2)N2C1=N[C@@H]1CCC[C@@H]12 [Compound 1] | 5.4 | 2.04 | 6.4 | 26.5 | 17.8 | 34.9 | 18.4 | overall decrease | proliferated at a slower rate | highly effective | 0.058 | 0.32 |
